Reference: patent publication US11021493B2, “1,4-thiazine dioxide and 1,2,4-thiadiazine dioxide derivatives as beta-secretase inhibitors and methods of use” (AMGEN INC., priority 2016, dated 2021)

Assays:
[1] = target: human recombinant BACE2 (Homo sapiens (Human), UniProt Q9Y5Z0); experiment: In vitro enzymatic BACE2 FRET assay; assay type: biochemical; conditions: read-out: BACE2 Enzyme IC50
[2] = target: T1, BACE1 (Homo sapiens (Human), UniProt P56817); experiment: In vitro enzymatic BACE1 FRET assay; assay type: biochemical; conditions: read-out: BACE1 Enzyme IC50
Target sequence in this assay (P56817 46-501): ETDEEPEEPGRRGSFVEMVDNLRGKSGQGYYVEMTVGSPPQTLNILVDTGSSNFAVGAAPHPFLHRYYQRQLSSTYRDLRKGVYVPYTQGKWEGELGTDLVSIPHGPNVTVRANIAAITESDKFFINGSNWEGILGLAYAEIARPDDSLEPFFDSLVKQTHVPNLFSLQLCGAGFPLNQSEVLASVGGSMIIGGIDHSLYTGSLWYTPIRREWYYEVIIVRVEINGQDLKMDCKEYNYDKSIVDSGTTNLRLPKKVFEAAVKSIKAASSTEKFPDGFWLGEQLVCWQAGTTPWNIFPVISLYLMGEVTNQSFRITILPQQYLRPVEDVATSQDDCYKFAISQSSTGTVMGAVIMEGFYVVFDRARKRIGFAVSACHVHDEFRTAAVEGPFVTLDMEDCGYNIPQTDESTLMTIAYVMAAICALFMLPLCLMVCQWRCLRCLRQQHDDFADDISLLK

[3] = target: β-secretase (Rattus norvegicus (Rat), UniProt P56819); experiment: In vivo inhibition of β-secretase: Aβ reduction in rat CSF and brain
β-secretase, sequence (P56819 46-501): as the sequence (P56817 46-501) above, with G82S, V162I, L165I, S180T, V182A, I340V, L393A, Q443H counted along it
Procedure: In Vivo Inhibition of β-Secretase
Animals to be used in this experiment can be wild type, transgenic, or gene knockout animals.
A separate group of animals receive 2% hydroxypropyl methylcellulose, 1% Tween80 alone, containing no test compound, and serve as a vehicle-control group. At the end of the test period, animals are sacrificed and brain tissues, plasma or cerebrospinal fluid are collected. […] Homogenates are centrifuged at 355,000 g, 4° C. for 30 minutes. CSF or brain supernatants are then analyzed for the presence of Aβ by specific sandwich ELISA assays based on ECL (Electrochemiluminescence) technology. For example, rat Aβ40 is measured using biotinylated-4G8 (Signet) as a capture antibody and Fab40 (an in-house antibody specific to the C-terminal of Aβ40) as a detection antibody.

[4] = target: T1, BACE1; experiment: In vitro BACE1 cell-based assay (Aβ40 in conditioned medium of cells stably expressing APP, HTRF); conditions: Aβ40 in conditioned media after 24 h incubation
Target sequence in this assay (P56817 46-501, species assumed): as the sequence (P56817 46-501) above

[5] = target: Cathepsin D (CatD) (Homo sapiens (Human), UniProt P07339); experiment: In vitro enzymatic Cathepsin D (CatD) FRET assay; assay type: biochemical; conditions: read-out: Cat D Enzyme IC50
Cathepsin D (CatD), sequence (P07339 65-412, species assumed): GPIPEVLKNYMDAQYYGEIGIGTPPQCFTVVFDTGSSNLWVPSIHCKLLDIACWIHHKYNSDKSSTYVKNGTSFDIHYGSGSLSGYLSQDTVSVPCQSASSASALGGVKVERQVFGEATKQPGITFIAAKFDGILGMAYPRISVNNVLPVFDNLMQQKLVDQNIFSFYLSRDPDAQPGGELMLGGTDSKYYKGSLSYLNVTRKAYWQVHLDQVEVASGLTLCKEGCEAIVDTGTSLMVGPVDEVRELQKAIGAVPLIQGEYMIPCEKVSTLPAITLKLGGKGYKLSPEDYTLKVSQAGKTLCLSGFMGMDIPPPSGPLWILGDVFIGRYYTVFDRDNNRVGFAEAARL

human recombinant BACE2, sequence (Q9Y5Z0 63-518): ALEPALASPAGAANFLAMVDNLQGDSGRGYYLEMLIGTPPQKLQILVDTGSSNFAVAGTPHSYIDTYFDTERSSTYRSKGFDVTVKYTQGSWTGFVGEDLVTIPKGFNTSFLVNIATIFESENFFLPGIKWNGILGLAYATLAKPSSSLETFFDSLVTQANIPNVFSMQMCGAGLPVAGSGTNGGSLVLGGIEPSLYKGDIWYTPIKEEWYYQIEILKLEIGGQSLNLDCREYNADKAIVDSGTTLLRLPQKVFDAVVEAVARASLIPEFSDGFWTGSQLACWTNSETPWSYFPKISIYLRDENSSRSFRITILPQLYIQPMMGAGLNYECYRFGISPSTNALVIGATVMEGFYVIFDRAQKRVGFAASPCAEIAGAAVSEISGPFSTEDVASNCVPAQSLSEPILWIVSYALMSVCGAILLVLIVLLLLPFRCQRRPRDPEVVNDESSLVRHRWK

Structure (SMILES)	IC50 [1] [nM]	IC50 [2] [nM]	% Aβ reduction in rat CSF at 10 mpk [3] [%]	% Aβ reduction in rat brain at 10 mpk [3] [%]	IC50 [4] [nM]	IC50 [5] [nM]
C#CCOc1cnc(/C(F)=C/c2cnc(F)c([C@]3(C)CS(=O)(=O)C(C)(C)C(N)=N3)c2)cn1 [Example 205, (R,Z)-5-amino-3-(2-fluoro-5-(2-fluoro-2-(5-(prop-2-yn-1-yloxy)pyrazin-2-yl)vinyl)pyridin-3-yl)-3,6,6-trimethyl-3,6-dihydro-2H-1,4-thiazine 1,1-dioxide]	129	5	68	65	7	244000
CC1(C)C(N)=N[C@](C)(c2cc(/C=C(\F)c3cnc(OCCn4ccnc4)cn3)ccc2F)CS1(=O)=O [Example 155, (R,Z)-3-(5-(2-(5-(2-(1H-imidazol-1-yl)ethoxy)pyrazin-2-yl)-2-fluorovinyl)-2-fluorophenyl)-5-amino-3,6,6-trimethyl-3,6-dihydro-2H-1,4-thiazine 1,1-dioxide]	2390	5140			985	440000
CC#C[C@H](CC)Oc1cnc(/C(F)=C/c2ccc(F)c([C@]3(C)CS(=O)(=O)C(C)(C)C(N)=N3)c2)cn1 [Example 199, (R)-5-amino-3-(2-fluoro-5-((Z)-2-fluoro-2-(5-((S)-hex-4-yn-3-yloxy)pyrazin-2-yl)vinyl)phenyl)-3,6,6-trimethyl-3,6-dihydro-2H-1,4-thiazine 1,1-dioxide]			43	58		
CCOc1cnc(/C(F)=C/c2ccc(F)c([C@@]3(C)N=C(N)[C@@]4(CF)CC[C@@H]3S4(=O)=O)c2)cn1 [Example 122, (1R,4R,5S)-2-amino-4-(5-((Z)-2-(5-ethoxypyrazin-2-yl)-2-fluorovinyl)-2-fluorophenyl)-1-(fluoromethyl)-4-methyl-8-thia-3-azabicyclo[3.2.1]oct-2-ene 8,8-dioxide]	194	54			527	> 400000
CN1C(N)=N[C@](C)(c2cc(/C=C(\F)c3ccc(C#N)cn3)cc(F)c2F)CS1(=O)=O [Example 107, (R,Z)-6-(2-(3-(3-amino-2,5-dimethyl-1,1-dioxido-5,6-dihydro-2H-1,2,4-thiadiazin-5-yl)-4,5-difluorophenyl)-1-fluorovinyl)nicotinonitrile]	25	3			3	81800
CC1(C)C(N)=N[C@](C)(c2cc(/C=C(\F)c3cnc(OCC4CCCCC4)cn3)ccc2F)CS1(=O)=O [Example 150, (R,Z)-5-amino-3-(5-(2-(5-(cyclohexylmethoxy)pyrazin-2-yl)-2-fluorovinyl)-2-fluorophenyl)-3,6,6-trimethyl-3,6-dihydro-2H-1,4-thiazine 1,1-dioxide]	155	46			1620	13800
C[C@]1(c2cc(/C=C(\F)c3cnc(OCC4CC4)cn3)ccc2F)N=C(N)[C@@]2(CF)CC[C@@H]1S2(=O)=O [Example 118, (1R,4R,5S)-2-amino-4-(5-((Z)-2-(5-(cyclopropylmethoxy)pyrazin-2-yl)-2-fluorovinyl)-2-fluorophenyl)-1-(fluoromethyl)-4-methyl-8-thia-3-azabicyclo[3.2.1]oct-2-ene 8,8-dioxide]	124	35			706	> 400000
CN1C(N)=N[C@](C)(c2cc(/C=C(\F)c3cc(F)c(Cl)cn3)ccc2F)CS1(=O)=O [Example 232, (R,Z)-3-amino-5-(5-(2-(5-chloro-4-fluoropyridin-2-yl)-2-fluorovinyl)-2-fluorophenyl)-2,5-dimethyl-5,6-dihydro-2H-1,2,4-thiadiazine 1,1-dioxide]	2	7			29	68800
CN1C(N)=N[C@](C)(c2cc(/C=C(\F)c3cc4c(cn3)OCO4)ccc2F)CS1(=O)=O [Example 257, (5R)-5-(5-((Z)-2-([1,3]dioxolo[4,5-c]pyridin-6-yl)-2-fluoroethenyl)-2-fluorophenyl)-2,5-dimethyl-5,6-dihydro-2H-1,2,4-thiadiazin-3-amine 1,1-dioxide]	235	207			102	237000
C#CCOc1cnc(/C(F)=C/c2ccc(F)c([C@]3(C)CS(=O)(=O)C4(CCC4)C(N)=N3)c2)cn1 [Example 149, (R,Z)-9-amino-7-(2-fluoro-5-(2-fluoro-2-(5-(prop-2-yn-1-yloxy)pyrazin-2-yl)vinyl)phenyl)-7-methyl-5-thia-8-azaspiro[3.5]non-8-ene 5,5-dioxide]	51	2			3	110000
CN1C(N)=N[C@](C)(c2cc(/C=C(\F)c3cnc(C#CC4CC4)cn3)ccc2F)CS1(=O)=O [Example 248, (R,Z)-3-amino-5-(5-(2-(5-(cyclopropylethynyl)pyrazin-2-yl)-2-fluorovinyl)-2-fluorophenyl)-2,5-dimethyl-5,6-dihydro-2H-1,2,4-thiadiazine 1,1-dioxide]	16	3			13	12700
CC1(C)C(N)=N[C@](C)(c2cc(/C=C(\F)c3cnc(OCC(F)(F)C(F)F)cn3)ccc2F)CS1(=O)=O [Example 141, (R,Z)-5-amino-3-(2-fluoro-5-(2-fluoro-2-(5-(2,2,3,3-tetrafluoropropoxy)pyrazin-2-yl)vinyl)phenyl)-3,6,6-trimethyl-3,6-dihydro-2H-1,4-thiazine 1,1-dioxide]	330	55			229	96200
C#CCOc1cnc(/C(F)=C/c2ccc(F)c([C@@]3(C)N=C(N)N(C)S(=O)(=O)C34CC4)c2)cn1 [Example 138, (8R)-8-(2-fluoro-5-((Z)-2-fluoro-2-(5-(2-propyn-1-yloxy)-2-pyrazinyl)ethenyl)phenyl)-5,8-dimethyl-4-thia-5,7-diazaspiro[2.5]oct-6-en-6-amine 4,4-dioxide]	622	16			78	125000
CN1C(N)=N[C@](C)(c2cc(/C=C(\F)c3ccc(C#N)cn3)ccc2F)CS1(=O)=O [Example 106, (R,Z)-6-(2-(3-(3-amino-2,5-dimethyl-1,1-dioxido-5,6-dihydro-2H-1,2,4-thiadiazin-5-yl)-4-fluorophenyl)-1-fluorovinyl)nicotinonitrile]	31	1			2	182000
CC1(C)C(N)=N[C@](C)(c2cc(/C=C(\F)c3ccc(C#N)cn3)ccc2F)CS1(=O)=O [Example 113, (R,Z)-6-(2-(3-(5-amino-3,6,6-trimethyl-1,1-dioxido-3,6-dihydro-2H-1,4-thiazin-3-yl)-4-fluorophenyl)-1-fluorovinyl)nicotinonitrile]	9	2			4	100000
CN1C(N)=N[C@](C)(c2cc(/C=C(\F)c3ccc(C#N)cn3)ccc2F)C(C)(C)S1(=O)=O [Example 180, (R,Z)-6-(2-(3-(3-amino-2,5,6,6-tetramethyl-1,1-dioxido-5,6-dihydro-2H-1,2,4-thiadiazin-5-yl)-4-fluorophenyl)-1-fluorovinyl)nicotinonitrile]	75	7			26	93700
CC1(C)C(N)=N[C@](C)(c2cc(/C=C(\F)c3cnc(OCC(F)(F)F)cn3)ccc2F)CS1(=O)=O [Example 124, (R,Z)-5-amino-3-(2-fluoro-5-(2-fluoro-2-(5-(2,2,2-trifluoroethoxy)pyrazin-2-yl)vinyl)phenyl)-3,6,6-trimethyl-3,6-dihydro-2H-1,4-thiazine 1,1-dioxide]	161	39			134	218000
CN1C(N)=N[C@](C)(c2cc(/C=C(\F)c3cnc(OCC(F)(F)F)cn3)ccc2F)CS1(=O)=O [Example 117, (R,Z)-3-amino-5-(2-fluoro-5-(2-fluoro-2-(5-(2,2,2-trifluoroethoxy)pyrazin-2-yl)vinyl)phenyl)-2,5-dimethyl-5,6-dihydro-2H-1,2,4-thiadiazine 1,1-dioxide]	186	23			148	29100
C[C@@]1(c2cc(/C=C(\F)c3ccc(C#N)cn3)ccc2F)CS(=O)(=O)C2(CCC2)C(N)=N1 [Example 103, (R,Z)-6-(2-(3-(9-amino-7-methyl-5,5-dioxido-5-thia-8-azaspiro[3.5]non-8-en-7-yl)-4-fluorophenyl)-1-fluorovinyl)nicotinonitrile]	50	3			39	94700
Cc1noc(COc2cnc(/C(F)=C/c3ccc(F)c([C@@]4(C)N=C(N)N(C)S(=O)(=O)C45CC5)c3)cn2)n1 [Example 161, (8R)-8-(2-fluoro-5-((Z)-2-fluoro-2-(5-((3-methyl-1,2,4-oxadiazol-5-yl)methoxy)-2-pyrazinyl)ethenyl)phenyl)-5,8-dimethyl-4-thia-5,7-diazaspiro[2.5]oct-6-en-6-amine 4,4-dioxide]	2630	80			48	59600
CN1C(N)=N[C@](C)(c2cc(/C=C(\F)c3ccc(Br)cn3)cc(F)c2F)CS1(=O)=O [Example 105, (R,Z)-3-amino-5-(5-(2-(5-bromopyridin-2-yl)-2-fluorovinyl)-2,3-difluorophenyl)-2,5-dimethyl-5,6-dihydro-2H-1,2,4-thiadiazine 1,1-dioxide]	9	12			23	35800
